Assay results published in US20160000777A1, “METHODS OF USING HISTAMINE RECEPTOR AGONISTS AND ANTAGONISTS” (UNIVERSITY OF ROCHESTER, priority 2013, published 2016).

Assays:
[1] = tested on: primary human keratinocytes (PHK); assay: Transepithelial electric resistance (TEER) in cultured primary human keratinocytes; format: cell-based
Description: (§1) PHK were cultured in Keratinocyte-SFM (Invitrogen/Gibco, Grand Island, N.Y.) with 5 ng/ml human recombinant Epidermal Growth Factor 1-53 (EGF 1-53), 50 μg/ml Bovine Pituitary Extract (BEP), 1% Pen/Strep, and 0.2% Amphotericin B (Invitrogen/Gibco). To induce terminal differentiation PHK were grown in DMEM (Invitrogen/Gibco) with 1% Pen/Strep and 0.2% Amphotericin B (Invitrogen/Gibco). Where it is indicated, 10% heat-inactivated bovine serum (Invitrogen) was added to the differentiation media. […] Briefly, TEER was measured using an EVOMX voltohmmeter (World Precision Instruments, Sarasota, Fla.). To evaluate the paracellular flux of PHK, 0.02% Fluorescein (FITC) Sodium (Fluka, St. Louis, Mo.) in PBS (Invitrogen/Gibco) was added to the upper chamber. Samples were collected from the lower chamber after 30 minutes incubation for PHK culture or 10 and 20 minutes for skin explant. For each experiment paracellular flux was normalized to an empty filter. […] TJ integrity was assessed by trans-epithelial electrical resistance (TEER) and paracellular fluorescein flux (permeability).

human skin explant = settings: ex-vivo epidermal explants, histamine 100 μM, 24 hr, P<0.05, n=3
Description: Briefly, TEER was measured using an EVOMX voltohmmeter (World Precision Instruments, Sarasota, Fla.). To evaluate the paracellular flux of PHK, 0.02% Fluorescein (FITC) Sodium (Fluka, St. Louis, Mo.) in PBS (Invitrogen/Gibco) was added to the upper chamber. Samples were collected from the lower chamber after 30 minutes incubation for PHK culture or 10 and 20 minutes for skin explant. For each experiment paracellular flux was normalized to an empty filter.
Skin samples were mounted on filter supports (Whatman Nuclepore Track-Etch Membrane; GE Healthcare Biosciences, Pittsburgh, Pa.) with the epidermal side oriented upward, and sandwiched between two sterile custom made Plexiglas discs with an opening of 3 mm and placed in modified Snapwell™ chambers (Corning, Corning, N.Y., USA). Samples were submerged in DMEM media and kept at 37° C., 5% CO2 for 30 min. Fresh media with histamine (10 or 100 μM) or media alone were then added to both sides of the transwell. TEER and Paracellular flux of fluorescein of skin explant were measured at 24 hr.

airway epithelial cells = settings: cited from earlier work
ZO-1 = settings: nasal and retinal epithelial cells, cited from earlier work
pro-Filaggrin (pro-FLG) = settings: FIG. 6
Description: Human keratinocytes were isolated from neonatal foreskin as previously described (Poumay et al., “Basal Detachment of the Epidermis Using Dispase: Tissue Spatial Organization and Fate of Integrin alpha 6 beta 4 and Hemidesmosomes,” J Invest Dermatol 102:111-7 (1994), which is hereby incorporated by reference in its entirety). PHK were cultured in Keratinocyte-SFM (Invitrogen/Gibco, Grand Island, N.Y.) with 5 ng/ml human recombinant Epidermal Growth Factor 1-53 (EGF 1-53), 50 μg/ml Bovine Pituitary Extract (BEP), 1% Pen/Strep, and 0.2% Amphotericin B (Invitrogen/Gibco). To induce terminal differentiation PHK were grown in DMEM (Invitrogen/Gibco) with 1% Pen/Strep and 0.2% Amphotericin B (Invitrogen/Gibco). Where it is indicated, 10% heat-inactivated bovine serum (Invitrogen) was added to the differentiation media. […] The protein concentration of all samples was determined by BCA (Pierce). […] TJ integrity was assessed by trans-epithelial electrical resistance (TEER) and paracellular fluorescein flux (permeability). […] Keratinocyte differentiation was assessed by examining filaggrin, loricrin and keratin 10 expression by Western blot. Expression of HRs were evaluated by qPCR in skin biopsies taken from lesional and nonlesional sites in AD subjects (n=6-8) and non-atopics (n=10).

[2] = tested on: primary human keratinocytes (PHK); assay: Paracellular fluorescein flux (permeability) in cultured primary human keratinocytes; format: cell-based; settings: histamine 100 μM, P<0.001, n=9, 96 hrs, FIG. 2B
Description: as §1

human keratinocytes = settings: cited from earlier work

What does the source list for `NCCc1c[nH]cn1` [histamine]?
TEER peak ([1]; PHK differentiated in DMEM serum free media, histamine 100 μM, 96 hours post-stimulation, n=4, FIG. 2C): significantly reduced TEER peak; TEER, Mean Area under the curve (AUC) ([1]; PHK, histamine 10 and 100 μM, P<0.001, n=10, AUC of 0-120 h time points, FIG. 2A): dose dependent reduction of TEER; Fluorescein permeability flux, Fold of control (FOC) (human skin explant; 20 minutes time point, FIG. 3B): 1.3 fold; TEER, Fold of control (FOC) (human skin explant; FIG. 3A): 0.7 fold; TJ paracellular permeability (airway epithelial cells): enhance TJ paracellular permeability; Expression of ZO-1 (ZO-1): reduce the expression; pro-FLG expression (pro-Filaggrin (pro-FLG); PHK at day 5 post differentiation, 100 μM histamine, Western blot, n=4): significantly reduced; Permeability to Fluorescein, Mean Fold of control (FOC) [2]: enhancement of permeability; Expression of stratum corneum and granulosum barrier proteins (e.g. filaggrin, Loricrin, claudin1, occludin) (human keratinocytes): reduced the expression

Which “Prevention of histamine-mediated reduction of pro-FLG expression” value (pro-Filaggrin (pro-FLG); PHK co-treated with 100 μM histamine and 10 μM Cetirizine) does the source give for `O=C(O)COCCN1CCN(C(c2ccccc2)c2ccc(Cl)cc2)CC1` (centres unmarked) [Cetirizine] here?
Its value is “prevented”.

With `COc1ccc(CN(CCN(C)C)c2ccccn2)cc1` [mepyriamine] as the molecule, how does the “Abrogation of histamine effect on ZO-1 expression” value (ZO-1; pretreatment with antagonist) read?
The value was “at least partially abrogated”.
